Experimental data reported in patent US20070167492A1, “Molluscicidal agents” (priority 2003, published 2007).

Experiments:
[1] = tested on: Deroceras reticulatum (grey field slug); experiment: Example 1: pot test, treated winter wheat seed with 5 adult slugs per pot, 14 days; assay type: in vivo
Procedure: (§1) Winter wheat (Kampa race; thousand grain weight of 51 grams) was used in an experiment to test the efficacy of the compositions of the present inventions in relation to known molluscicidal compounds. The seeds were disinfected for soil and germ moulds with 2 ml of Beret Gold (comprising 25 g/l of the fungicide fludioxonil) per kg of seed.
(§2) Sepiret® was added to all dry disinfections, and is the coating that was added to all agents of which the formulation was not suitable for coating.
The seeds were sown in earthenware pots with an internal diameter of 20 cm and a height of 18 cm, filled with 7 cm of potting soil (Trio BV, Weesp, The Netherlands) and with a top 2 cm of white quartz sand. A total of 40 seeds was placed in each pot, in a pattern of concentric circles on top of the quartz sand, the germ facing upwards. To each pot a total of 5 adult specimens of the test slug Deroceras reticulatum (grey field slug) were added. The pots were incubated at ±15° C. with a relative humidity of ±90% and light regime of ±12 hours light/12 hours dark, without artificial lighting. The pots were not irrigated overhead. In total, 4 parallel tests were performed for each test.
Following the addition of the slugs, the number of damaged seeds was counted after 2, 3, 7, 10 and 14 days. The number of plants present (germinated and not eaten or damaged by the slugs) was determined 3, 7, 10 and 14 days after the start of the test. […] The number of dead slugs was counted 2, 3, 7, 10 and 14 days after the start of the test (but not removed). Finally, on days 3, 7, 10 and 14 after the start of the test, the number fecal pellets was counted.
The data were statistically analysed by using F-tests (α=0.05) and pair-wise Student-tests.

[2] = tested on: Winter wheat (Kampa race) seeds; experiment: Seed germination test of treated winter wheat seeds (rolled in paper); assay type: in vivo; settings: 3x50 seeds, 6 days at 22° C.
Procedure: as §1, §2
Table 2 provides an overview of the amounts of diluent water and Sepiret® used for treating the wheat seeds. Table 2 further provides the quality of the coating and the percentages of germinating seeds in a seed germination test. In this test, the percentage of germination of 3×50 seeds, rolled in paper, was determined after 6 days at 22° C. (continuously) and a 16 hours light regime.

[3] = 2 ml formulated per kg seed, 2 days after sowing
[4] = 2 ml formulated per kg seed, 3 days after sowing
[5] = 2 ml formulated per kg seed, 7 days after sowing
[6] = 2 ml formulated per kg seed, 10 days after sowing
[7] = 2 ml formulated per kg seed, 14 days after sowing
[8] = 4 ml formulated per kg seed, 2 days after sowing
[9] = 4 ml formulated per kg seed, 3 days after sowing
[10] = 4 ml formulated per kg seed, 7 days after sowing
[11] = 4 ml formulated per kg seed, 10 days after sowing
[12] = 4 ml formulated per kg seed, 14 days after sowing
[13] = 8 ml formulated per kg seed, 2 days after sowing
[14] = 8 ml formulated per kg seed, 3 days after sowing
[15] = 8 ml formulated per kg seed, 7 days after sowing
[16] = 8 ml formulated per kg seed, 10 days after sowing
[17] = 8 ml formulated per kg seed, 14 days after sowing
[18] = 23 ml formulated per kg seed, 2 days after sowing
[19] = 23 ml formulated per kg seed, 3 days after sowing
[20] = 23 ml formulated per kg seed, 7 days after sowing
[21] = 23 ml formulated per kg seed, 10 days after sowing
[22] = 23 ml formulated per kg seed, 14 days after sowing

CN1COCN(Cc2cnc(Cl)s2)/C1=N\[N+](=O)[O-] [thiamethoxam]
number of utilizable plants after 14 days ([1]; 2 ml formulated per kg seed): 0.3 | percentage of damaged seeds after 14 days ([1]; 2 ml formulated per kg seed): 97% | Mean number of damaged seeds per pot [1, 3]: 5.0 | Mean number of dead slugs per pot [1, 3]: 0 | Mean number fecal pellets per pot [1, 4]: 42 | Mean number of damaged seeds per pot [1, 4]: 18.0 | Mean number of dead slugs per pot [1, 4]: 0 | Mean number of plants present per pot [1, 4]: 7.3 | Mean number fecal pellets per pot [1, 5]: 107 | Mean number of damaged seeds per pot [1, 5]: 37.3 | Mean number of dead slugs per pot [1, 5]: 0 | Mean number of plants present per pot [1, 5]: 0.3 | Mean number fecal pellets per pot [1, 6]: 158 | Mean number of damaged seeds per pot [1, 6]: 39.0 | Mean number of dead slugs per pot [1, 6]: 0 | Mean number of plants present per pot [1, 6]: 0.3 | Mean number fecal pellets per pot [1, 7]: 144 | Mean number of damaged seeds per pot [1, 7]: 38.8 | Mean number of dead slugs per pot [1, 7]: 0 | Mean number of plants present per pot [1, 7]: 0.3 | number of utilizable plants after 14 days ([1]; 4 ml formulated per kg seed): 0 | percentage of damaged seeds after 14 days ([1]; 4 ml formulated per kg seed): 98% | Mean number of damaged seeds per pot [1, 8]: 1.8 | Mean number of dead slugs per pot [1, 8]: 0 | Mean number fecal pellets per pot [1, 9]: 30 | Mean number of damaged seeds per pot [1, 9]: 15.5 | Mean number of dead slugs per pot [1, 9]: 0 | Mean number of plants present per pot [1, 9]: 6.0 | Mean number fecal pellets per pot [1, 10]: 115 | Mean number of damaged seeds per pot [1, 10]: 37.0 | Mean number of dead slugs per pot [1, 10]: 0 | Mean number of plants present per pot [1, 10]: 0.3 | Mean number fecal pellets per pot [1, 11]: 126 | Mean number of damaged seeds per pot [1, 11]: 36.5 | Mean number of dead slugs per pot [1, 11]: 0.3 | Mean number of plants present per pot [1, 11]: 0 | Mean number fecal pellets per pot [1, 12]: 133 | Mean number of damaged seeds per pot [1, 12]: 39.0 | Mean number of dead slugs per pot [1, 12]: 0.5 | Mean number of plants present per pot [1, 12]: 0 | number of utilizable plants after 14 days ([1]; 8 ml formulated per kg seed): 3.8 | percentage of damaged seeds after 14 days ([1]; 8 ml formulated per kg seed): 84% | Mean number of damaged seeds per pot [1, 13]: 2.0 | Mean number of dead slugs per pot [1, 13]: 0 | Mean number fecal pellets per pot [1, 14]: 33 | Mean number of damaged seeds per pot [1, 14]: 10.3 | Mean number of dead slugs per pot [1, 14]: 0 | Mean number of plants present per pot [1, 14]: 5.5 | Mean number fecal pellets per pot [1, 15]: 85 | Mean number of damaged seeds per pot [1, 15]: 29.8 | Mean number of dead slugs per pot [1, 15]: 0 | Mean number of plants present per pot [1, 15]: 5.3 | Mean number fecal pellets per pot [1, 16]: 108 | Mean number of damaged seeds per pot [1, 16]: 30.8 | Mean number of dead slugs per pot [1, 16]: 0 | Mean number of plants present per pot [1, 16]: 5.5 | Mean number fecal pellets per pot [1, 17]: 112 | Mean number of damaged seeds per pot [1, 17]: 33.8 | Mean number of dead slugs per pot [1, 17]: 0.3 | Mean number of plants present per pot [1, 17]: 5.5 | number of utilizable plants after 14 days ([1]; 23 ml formulated per kg seed): 2.5 | percentage of damaged seeds after 14 days ([1]; 23 ml formulated per kg seed): 79% | Mean number of damaged seeds per pot [1, 18]: 0.5 | Mean number of dead slugs per pot [1, 18]: 0 | Mean number fecal pellets per pot [1, 19]: 20 | Mean number of damaged seeds per pot [1, 19]: 8.5 | Mean number of dead slugs per pot [1, 19]: 0.3 | Mean number of plants present per pot [1, 19]: 6.8 | Mean number fecal pellets per pot [1, 20]: 91 | Mean number of damaged seeds per pot [1, 20]: 29.8 | Mean number of dead slugs per pot [1, 20]: 0.3 | Mean number of plants present per pot [1, 20]: 6.3 | Mean number fecal pellets per pot [1, 21]: 122 | Mean number of damaged seeds per pot [1, 21]: 30.0 | Mean number of dead slugs per pot [1, 21]: 0.8 | Mean number of plants present per pot [1, 21]: 7.0 | Mean number fecal pellets per pot [1, 22]: 131 | Mean number of damaged seeds per pot [1, 22]: 31.5 | Mean number of dead slugs per pot [1, 22]: 0.8 | Mean number of plants present per pot [1, 22]: 5.8 | differences in the number of damaged seeds ([1]; Example 1, dosages tested): did not result in significant differences | protection / slug controlling effect (conclusion) ([1]; Example 1, winter wheat seed treatment, dosages tested): no sufficient protection to the plants | Percentage germinated ([2]; 2 ml formulated per kg seed): 88% | Percentage germinated ([2]; 4 ml formulated per kg seed): 78% | Percentage germinated ([2]; 8 ml formulated per kg seed): 61% | Percentage germinated ([2]; 23 ml formulated per kg seed): 73%
